Patent US8293729B2 (Boehringer Ingelheim International GmbH, priority 2009, dated 2012)
Like-named read-outs stand apart in the source and are kept apart here.

Molecular target: T1, human GPR119 receptor (Homo sapiens, UniProt Q8TDV5, S329A/T327A)
T1 construct: N-terminal leader […]; expressed in transfected cells
T1 sequence (Q8TDV5 with tags, fused parts or gaps T327A/S329A): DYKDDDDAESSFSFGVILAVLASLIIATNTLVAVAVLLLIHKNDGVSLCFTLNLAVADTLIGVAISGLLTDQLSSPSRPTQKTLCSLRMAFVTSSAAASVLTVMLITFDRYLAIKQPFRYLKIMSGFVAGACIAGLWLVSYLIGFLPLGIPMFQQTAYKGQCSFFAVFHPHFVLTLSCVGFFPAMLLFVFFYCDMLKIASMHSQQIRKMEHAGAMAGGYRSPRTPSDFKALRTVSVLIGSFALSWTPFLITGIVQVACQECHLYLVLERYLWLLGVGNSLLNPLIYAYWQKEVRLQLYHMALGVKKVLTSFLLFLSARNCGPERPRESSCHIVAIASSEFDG
Experiment: cAMP assay (LANCE cAMP-384) in HEK293 cells stably expressing mutant human GPR119 receptor
Type: cell-based
Settings: for activation at 10 µM: HEK293, 20 min
Protocol: Quantitative detection of cAMP accumulation from cells expressing human GPR119 receptor was achieved using Perkin Elmer's LANCE cAMP-384 Kit (Cat#AD0264) according to the manufacturer's protocol. Briefly, HEK293 cells stably expressing a mutant form of the human GPR119 receptor (Methionine 1 replaced with the amino acid sequence […] (SEQ ID NO: 1), and T327 & S329 changed to alanines) were grown to 50-70% confluency in cell culture media (DMEM, 10% heat inactivated Fetal Bovine Serum, 50 I.U./mL penicillin, 50 μg/mL streptomycin, 10 mM HEPES, 20 μg/mL G418 Sulfate). On the day of the assay, GPR119 stable HEK293 cells were lifted from the tissue culture plate and 1000 cells/well were incubated along with various concentrations of test compounds for 20 min at 37° C. Detection Buffer (50mM HEPES, 10mM calcium chloride, 0.35% Triton X-100, 1 mg/mL BSA) containing cAMP-specific antibody was then added to all wells and allowed to equilibrate in the dark for 10 minutes at room temperature. Upon equilibration, Detection Buffer containing europium-labeled cAMP tracer complex was added to all wells and allowed to react for 1 hour at room temperature. After 1 hour, bound europium-labeled cAMP tracer was measured using a Perkin Elmer ViewLux. The quantity of cAMP generated in each well was derived from a standard curve. EC50 was determined using nonlinear regression analysis of the cAMP values over a range of agonist concentration (12 points spanning the range from 30 μM to 100pM).
For some compounds for which no EC50 value could be determined, the efficacy is provided at a single concentration (10 μM) yielding % stimulation values.

[1] = cAMP accumulation, HEK293 cells stably expressing mutant human GPR119, read-out: EC50
[2] = the 19th table, unit inferred, read-out: EC 50
[3] = the 43rd table, compounds 75-1 to 75-38, read-out: EC50
[4] = single concentration 10 μM, given where no EC50 value could be determined, read-out: % stimulation at 10 μM
[5] = at 10 μM, printed in EC50 column of the 36th table, read-out: stimulation in % at 10 μM

Work on `CS(=O)(=O)c1cc(F)c(N2CCC(=NOC3CCN(C(=O)Cc4ccccc4)CC3)CC2)cc1F` [Example 65-28] yielded an EC50 (the 35th table, compounds 65-25 to 65-36, read-out: EC50) of 240 nM.
`CC(C)OC(=O)N1CCC(ON=C2CCN(c3nc(Cl)ncc3F)CC2)CC1` [Example 2-73] was tested, and the EC50 [1] was 110 nM.
`CC(C)OC(=O)N1CCC(ON=C2CCN(c3cc(F)c(Cn4cnc5ncccc54)cc3F)CC2)CC1` [Example 14-5] showed an EC50 [1] of 374 nM.
Compound `CCOC(=O)CNC(=O)NCc1cc(F)c(N2CCC(=NOC3CCN(C(=O)OC(C)C)CC3)CC2)cc1F` [Example 16-9] has an EC50 [1] of 401 nM.
For `CCc1cnc(N2CCC(ON=C3CCN(c4cc(F)c(C(=O)N5CCC[C@H]5CNC)cc4F)CC3)CC2)nc1` [Example 29-134], the EC50 [2] was 437 nM.
`CC(C)OC(=O)N1CCC(ON=C2CCN(c3cc(F)c(/C=C/C#N)cc3F)CC2)CC1` [Example 39-2] was tested, and the EC50 (the 25th table, read-out: EC50) was 157 nM.
In the case of `CC(C)OC(=O)N1CCC(ON=C2CCN(c3cc(F)c(NS(N)(=O)=O)cc3F)CC2)CC1` [Example 38-1], the EC50 [1] is reported as 197 nM.
With `CCOC(=O)c1cnn(Cc2cc(F)c(N3CCC(=NOC4CCN(C(=O)OC(C)C)CC4)CC3)cc2F)c1` [Example 14-11] the EC50 [1] was 190 nM.
Compound `CCc1ccc([C@H](C)N2CCC(ON=C3CCN(c4cc(F)c(S(C)(=O)=O)cc4F)CC3)CC2)cc1` [Example 66-63] has an EC50 (the 37th table, compounds 66-52 to 66-64, read-out: EC50) of 294 nM.
In the case of `Cc1ccsc1-c1cc(F)c(N2CCC(=NOC3CCN(C(=O)OC(C)C)CC3)CC2)cc1F` [Example 27-24], the EC50 [1] is reported as 329 nM.
Compound `CCc1cnc(N2CCC(ON=C3CCN(c4cc(F)c(C(=O)N5CCC(N)CC5)cc4F)CC3)CC2)nc1` [Example 29-126] has an EC50 [2] of 469 nM.
`Cc1cnccc1N1CCC(=NOC2CCN(C(=O)OC(C)C)CC2)CC1` [Example 2-51] was tested, and the EC50 [1] was 951 nM.
With `CC(C)OC(=O)N1CCC(ON=C2CCN(c3cc(F)c(-c4ncccn4)cc3F)CC2)CC1` [Example 27-20] the EC50 [1] was 272 nM.
`CC(C)(C)CN1CCC(ON=C2CCN(c3ccc(S(C)(=O)=O)cc3F)CC2)CC1` [Example 66-22] showed an EC50 (the 36th table, compounds 66-1 to 66-51, read-out: EC50) of 1360 nM.
`CC(C)OC(=O)N1CCC(ON=C2CCN(c3cc(F)c(-c4cncnc4)cc3F)CC2)CC1` [Example 27-6] showed an EC50 [1] of 243 nM.
Work on `CC(C)CCOC(=O)N1CCC(ON=C2CCN(c3ccc(S(C)(=O)=O)cc3F)CC2)CC1` [Example 64-40] yielded an EC50 (the 33rd table, read-out: EC50) of 89 nM.
For `Cc1ccnc(N2CCC(ON=C3CCN(c4ccc(S(C)(=O)=O)cc4F)CC3)CC2)n1` [Example 63-16], the EC50 (the 32nd table, read-out: EC50) was 765 nM.
Work on `CC(C)(C)CCOC(=O)N1CCC(ON=C2CCN(c3ccc(S(C)(=O)=O)cc3F)CC2)CC1` [Example 64-41] yielded an EC50 (the 33rd table, read-out: EC50) of 202 nM.
For `CC(C)OC(=O)N1CCC(ON=C2CCN(c3cc(F)c(CN4CCOC4=O)cc3F)CC2)CC1` [Example 15-1, 4-{1-[2,5-DIFLUORO-4-(2-OXO-OXAZOLIDIN-3-YLMETHYL)-PHENYL]-PIPERIDIN-4-YLIDENEAMINOOXY}-PIPERIDINE-1-CARBOXYLIC ACID ISOPROPYL ESTER], the EC50 [1] was 140 nM.
Compound `CC(C)OC(=O)N1CCC(ON=C2CCN(c3cc(F)c(CC(=O)NCC4CCN(C)C4)cc3F)CC2)CC1` (centres unmarked) [Example 75-33] has an EC50 [3] of 128 nM.
Compound `Cc1cccnc1N1CCC(=NOC2CCN(C(=O)OC(C)C)CC2)CC1` [Example 2-7] has an activation at 10 µM [4] of 55%.
With `CC(C)OC(=O)N1CCC(ON=C2CCN(c3ccc(F)c(F)n3)CC2)CC1` [Example 2-71] the EC50 [1] was 2590 nM.
Work on `CC(C)OC(=O)N1CCC(ON=C2CCN(c3ccc(CO)cc3F)CC2)CC1` [Example 52-3] yielded an EC50 (the 29th table, read-out: EC50) of 128 nM.
In the case of `CC(C)OC(=O)N1CCC(ON=C2CCN(c3ncc(N4CCCC4=O)cn3)CC2)CC1` [Example 51-6], the activation at 10 µM (10 μM, the 28th table, read-out: stimulation in % at 10 μM) is reported as 98%.
Compound `CCc1cnc(N2CCC(ON=C3CCN(c4cc(F)c(C(=O)NCC5CCNC5)cc4F)CC3)CC2)nc1` (centres unmarked) [Example 29-139] has an EC50 [2] of 92 nM.
Compound `CC(C)OC(=O)N1CCC(ON=C2CCN(c3cc(F)c(-c4cnc(N)nc4)cc3F)CC2)CC1` [Example 27-15] has an EC50 [1] of 516 nM.
In the case of `CC(C)OC(=O)N1CCC(ON=C2CCN(c3ccc(C=O)c(F)c3)CC2)CC1` [Example 2-20], the EC50 [1] is reported as 703 nM.
Work on `CC(C)OC(=O)N1CCC(ON=C2CCN(c3ncc(S(C)(=O)=O)cn3)CC2)CC1` [Example 46-4] yielded an EC50 (the 26th table, read-out: EC50) of 157 nM.
Compound `CCc1cnc(N2CCC(ON=C3CCN(c4cc(F)c(CC(=O)N5CCC[C@H](N)C5)cc4F)CC3)CC2)nc1` [Example 77-7] has an EC50 (the 44th table, compounds 77-1 to 77-14, read-out: EC50) of 45 nM.
With `CC(C)OC(=O)N1CCC(ON=C2CCN(c3cc(F)c(C(=O)NCCC4CCNCC4)cc3F)CC2)CC1` [Example 29-32] the EC50 (the 15th table, read-out: EC50) was 73 nM.
For `COc1cccc(-c2cc(F)c(N3CCC(=NOC4CCN(C(=O)OC(C)C)CC4)CC3)cc2F)n1` [Example 27-11], the activation at 10 µM [4] was 80%.
`CCc1cnc(N2CCC(ON=C3CCN(c4cc(F)c(C(=O)N5C[C@@H]6C[C@H]5CN6)cc4F)CC3)CC2)nc1` [Example 29-115] gave an EC50 [2] of 2010 nM.
Work on `CCc1cnc(N2CCC(ON=C3CCN(c4cc(F)c(C(=O)N5CCCC(CN)C5)cc4F)CC3)CC2)nc1` (centres unmarked) [Example 29-124] yielded an EC50 [2] of 55 nM.
For `CC(C)OC(=O)N1CCC(ON=C2CCN(c3nc(F)ccc3F)CC2)CC1` [Example 2-70], the EC50 [1] was 3260 nM.
For `CC(N)COC(=O)N1CCC(ON=C2CCN(c3ccc(S(C)(=O)=O)cc3F)CC2)CC1` (centres unmarked) [Example 64-34], the EC50 (the 33rd table, read-out: EC50) was greater than 10000 nM.
Compound `CCOC(=O)CC(=O)c1cc(F)c(N2CCC(=NOC3CCN(C(=O)OC(C)C)CC3)CC2)nc1Cl` [Example 2-48] has an EC50 [1] of 146 nM.
For `CC(C)OC(=O)N1CCC(ON=C2CCN(c3cc(F)c(-c4ccc5[nH]ccc5c4)cc3F)CC2)CC1` [Example 27-32], the EC50 [1] was 1380 nM.
Compound `CS(=O)(=O)c1ccc(N2CCC(=NOC3CCN(Cc4ccc5c(c4)OCO5)CC3)CC2)c(F)c1` [Example 66-37] has an activation at 10 µM [5] of 87%.
`CC(C)OC(=O)N1CCC(ON=C2CCN(c3cc(F)c(CSCC(=O)O)cc3F)CC2)CC1` [Example 13-2] was tested, and the EC50 [1] was 2410 nM.
`CC(C)OC(=O)N1CCC(ON=C2CCN(c3cc(F)c(Cn4cnc5cccnc54)cc3F)CC2)CC1` [Example 14-6] showed an EC50 [1] of 647 nM.
In the case of `CS(=O)(=O)c1ccc(N2CCC(=NOC3CCN(CC(=O)OCc4ccccc4)CC3)CC2)c(F)c1` [Example 65-5], the EC50 (the 34th table, compounds 65-1 to 65-24, read-out: EC50) is reported as 3380 nM.
`CC(C)OC(=O)N1CCC(ON=C2CCN(c3ncc4c(n3)CCN(S(C)(=O)=O)C4)CC2)CC1` [Example 59b, 4-[1-(6-Methanesulfonyl-5,6,7,8-tetrahydro-pyrido[4,3-d]pyrimidin-2-yl)-piperidin-4-ylideneaminooxy]-piperidine-1-carboxylic acid isopropyl ester] was tested, and the EC50 [1] was 328 nM.
With `CC(C)OC(=O)N1CCC(ON=C2CCN(c3ccncc3F)CC2)CC1` [Example 2-72] the EC50 [1] was 750 nM.
Work on `CN(C)c1ccc(CN2CCC(ON=C3CCN(c4ccc(S(C)(=O)=O)cc4F)CC3)CC2)cc1` [Example 66-36] yielded an activation at 10 µM [5] of 83%.
Work on `CNCCNC(=O)c1cc(F)c(N2CCC(=NOC3CCN(C(=O)OC(C)C)CC3)CC2)cc1F` [Example 31-1, 4-{1-[2,5-Difluoro-4-(2-methylamino-ethylcarbamoyl)-phenyl]-piperidin-4-ylideneaminooxy}-piperidine-1-carboxylic acid isopropyl ester] yielded an EC50 [1] of 424 nM.
With `CC(C)OC(=O)N1CCC(ON=C2CCN(c3ncc(S(C)(=O)=O)cc3F)CC2)CC1` [Example 46-1, 4 (5′-METHYLSULFONYL-3′-FLUORO-2,3,5,6-TETRAHYDRO-[1,2′]BIPYRIDINYL-4-YLIDENEAMINOOXY)-PIPERIDINE-1-CARBOXYLIC ACID ISOPROPYL ESTER] the EC50 (the 26th table, read-out: EC50) was 131 nM.
Compound `Cc1cc(C(=O)O)nc(N2CCC(=NOC3CCN(C(=O)OC(C)C)CC3)CC2)n1` [Example 2-65] has an EC50 [1] greater than 10000 nM.
`CC(C)OC(=O)N1CCC(ON=C2CCN(c3ncc(-n4cccn4)cc3F)CC2)CC1` [Example 51-2] was tested, and the EC50 (the 28th table, read-out: EC50) was 558 nM.
`CC(C)OC(=O)N1CCC(ON=C2CCN(c3cc(F)c(CC(=O)NC[C@H]4CCCN4)cc3F)CC2)CC1` [Example 75-11] showed an EC50 [3] of 161 nM.
For `CC(C)OC(=O)N1CCC(ON=C2CCN(c3nncs3)CC2)CC1` [Example 2-14], the EC50 [1] was greater than 10000 nM.
